Test results from ChEMBL document CHEMBL4145553, “Design, synthesis, and biological evaluation of novel amide and hydrazide based thioether analogs targeting Histone deacteylase (HDAC) enzymes” (Eur J Med Chem, 2018).
Active and inactive are the calls of the source. The calls are words filed in the database; no cut-off is given here.

Tests used:
SF-539 = experiment: Growth inhibition of human SF539 cells assessed as cell growth at 10^-8 M incubated for 48 hrs by sulforhodamine B assay relative to control; assay type: functional; details: SF-539, 48 h, read-out: Activity
SNB-75 = experiment: Growth inhibition of human SNB75 cells assessed as cell growth at 10^-8 M incubated for 48 hrs by sulforhodamine B assay relative to control; assay type: functional; details: SNB-75, 48 h, read-out: Activity
IGROV-1 = experiment: Growth inhibition of human IGROV1 cells assessed as cell growth at 10^-8 M incubated for 48 hrs by sulforhodamine B assay relative to control; assay type: functional; details: IGROV-1, 48 h, read-out: Activity
HL-60(TB) [1] = experiment: Growth inhibition of human HL-60(TB) cells assessed as cell growth at 10^-7 M incubated for 48 hrs by sulforhodamine B assay relative to control; assay type: functional; details: HL-60, 48 h, read-out: Activity
A549 = experiment: Growth inhibition of human A549/ATCC cells assessed as cell growth at 10^-7 M incubated for 48 hrs by sulforhodamine B assay relative to control; assay type: functional; details: A549, 48 h, read-out: Activity
OVCAR-5 [2] = experiment: Growth inhibition of human OVCAR5 cells assessed as cell growth at 10^-7 M incubated for 48 hrs by sulforhodamine B assay relative to control; assay type: functional; details: OVCAR-5, 48 h, read-out: Activity
NCI/ADR-RES = experiment: Growth inhibition of human NCI/ADR-RES cells assessed as cell growth at 10^-7 M incubated for 48 hrs by sulforhodamine B assay relative to control; assay type: functional; details: read-out: Activity
KM12 = experiment: Growth inhibition of human KM12 cells assessed as cell growth at 10^-6 M incubated for 48 hrs by sulforhodamine B assay relative to control; assay type: functional; details: KM12, 48 h, read-out: Activity
786-0 = experiment: Growth inhibition of human 786-0 cells assessed as cell growth at 10^-6 M incubated for 48 hrs by sulforhodamine B assay relative to control; assay type: functional; details: 786-0, 48 h, read-out: Activity
LOX IMVI = experiment: Growth inhibition of human LOXIMVI cells assessed as cell growth at 10^-5 M incubated for 48 hrs by sulforhodamine B assay relative to control; assay type: functional; details: read-out: Activity
CAKI-1 = experiment: Growth inhibition of human Caki1 cells assessed as cell growth at 10^-5 M incubated for 48 hrs by sulforhodamine B assay relative to control; assay type: functional; details: CAKI-1, 48 h, read-out: Activity
HT-29 = experiment: Growth inhibition of human HT-29 cells assessed as cell growth at 10^-4 M incubated for 48 hrs by sulforhodamine B assay relative to control; assay type: functional; details: HT-29, 48 h, read-out: Activity
OVCAR-8 = experiment: Growth inhibition of human OVCAR8 cells assessed as cell growth at 10^-4 M incubated for 48 hrs by sulforhodamine B assay relative to control; assay type: functional; details: OVCAR-8, 48 h, read-out: Activity
HL-60(TB) [3] = experiment: Growth inhibition of human HL-60(TB) cells incubated for 48 hrs by sulforhodamine B assay; assay type: functional; details: HL-60, 48 h
MOLT-4 = experiment: Growth inhibition of human MOLT4 cells incubated for 48 hrs by sulforhodamine B assay; assay type: functional; details: MOLT-4, 48 h
HCT-116 = experiment: Growth inhibition of human HCT116 cells incubated for 48 hrs by sulforhodamine B assay; assay type: functional; details: HCT-116, 48 h
SK-MEL-2 = experiment: Growth inhibition of human SK-MEL-2 cells incubated for 48 hrs by sulforhodamine B assay; assay type: functional; details: SK-MEL-2, 48 h
SK-MEL-5 = experiment: Growth inhibition of human SK-MEL-5 cells incubated for 48 hrs by sulforhodamine B assay; assay type: functional; details: SK-MEL-5, 48 h
OVCAR-5 [4] = experiment: Growth inhibition of human OVCAR5 cells incubated for 48 hrs by sulforhodamine B assay; assay type: functional; details: OVCAR-5, 48 h
RXF 393 = experiment: Growth inhibition of human RXF393 cells incubated for 48 hrs by sulforhodamine B assay; assay type: functional; details: RXF 393, 48 h
SN12C = experiment: Growth inhibition of human SN12C cells incubated for 48 hrs by sulforhodamine B assay; assay type: functional
UO-31 = experiment: Growth inhibition of human UO31 cells incubated for 48 hrs by sulforhodamine B assay; assay type: functional; details: UO-31, 48 h
DU-145 = experiment: Growth inhibition of human DU145 cells incubated for 48 hrs by sulforhodamine B assay; assay type: functional; details: DU-145, 48 h
MDA-MB-435 [5] = experiment: Antiproliferative activity against human MDA-MB-435 cells after 24 hrs by MTT assay; assay type: functional
HL-60 = experiment: Induction of apoptosis in human HL60 cells assessed as early apoptotic cells by propidium iodide/Annexin V staining based flow cytometry (reference value: 0.37%); assay type: functional
MDA-MB-435 [6] = experiment: Induction of apoptosis in human MDA-MB-435 cells assessed as increase in gammaH2ax expression by qRT-PCR method; assay type: functional, cell-based
Histone deacetylase 3 = Histone deacetylase 3 (Homo sapiens, UniProt O15379); experiment: Inhibition of HDAC3 (unknown origin) by ELISA
[7] = read-out: LC50 (the source's name)
[8] = read-out: pLC50 (the source's name) (converted)

Histone deacetylase 3, sequence (O15379 whole entry): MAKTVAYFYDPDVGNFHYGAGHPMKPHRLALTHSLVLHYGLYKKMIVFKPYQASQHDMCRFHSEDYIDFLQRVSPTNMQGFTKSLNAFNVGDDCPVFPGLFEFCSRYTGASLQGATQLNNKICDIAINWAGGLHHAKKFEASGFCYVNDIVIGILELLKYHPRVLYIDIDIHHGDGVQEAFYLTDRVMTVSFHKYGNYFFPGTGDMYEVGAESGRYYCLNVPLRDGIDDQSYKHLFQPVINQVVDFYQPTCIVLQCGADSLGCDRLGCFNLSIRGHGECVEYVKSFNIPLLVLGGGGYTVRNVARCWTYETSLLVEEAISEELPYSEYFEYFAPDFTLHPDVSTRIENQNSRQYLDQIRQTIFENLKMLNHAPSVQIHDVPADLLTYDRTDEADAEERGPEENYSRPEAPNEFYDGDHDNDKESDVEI

CCS/C(Nc1ccccc1)=C(\C#N)C(=O)Nc1ccc(OC)cc1
growth at 0.01 µM (SF-539): 94% | growth at 0.01 µM (SNB-75): 94% | growth at 0.01 µM (IGROV-1): 103% | growth at 0.1 µM (HL-60(TB) [1]): 89% | growth at 0.1 µM (A549): 94% | growth at 0.1 µM (OVCAR-5 [2]): 95% | growth at 0.1 µM (NCI/ADR-RES): 95% | growth at 1 µM (KM12): 68% | growth at 1 µM (786-0): 83% | growth at 10 µM (LOX IMVI): 40% | growth at 10 µM (CAKI-1): 29% | growth at 100 µM (HT-29): -8% | growth at 100 µM (OVCAR-8): 10% | GI50 (HL-60(TB) [3]; read-out: GI50): 2.87 µM | CC50 (HL-60(TB) [3]; [7]): > 100 µM | TGI (HL-60(TB) [3]; read-out: TGI): > 100 µM | GI50 (HL-60(TB) [3]; read-out: pGI50 (converted)): 2.88 µM | CC50 (HL-60(TB) [3]; [8]): > 100 µM | TGI (HL-60(TB) [3]; read-out: pTGI): > 100 µM | GI50 (MOLT-4; read-out: GI50): 2.61 µM | CC50 (MOLT-4; [7]): > 100 µM | TGI (MOLT-4; read-out: TGI): > 100 µM | GI50 (MOLT-4; read-out: pGI50 (converted)): 2.63 µM | CC50 (MOLT-4; [8]): > 100 µM | TGI (MOLT-4; read-out: pTGI): > 100 µM | GI50 (HCT-116; read-out: GI50): 1.95 µM | CC50 (HCT-116; [7]): > 100 µM | TGI (HCT-116; read-out: TGI): 16.4 µM | GI50 (HCT-116; read-out: pGI50 (converted)): 1.95 µM | CC50 (HCT-116; [8]): > 100 µM | TGI (HCT-116; read-out: pTGI (converted)): 16.6 µM | GI50 (SK-MEL-2; read-out: GI50): 3.01 µM | CC50 (SK-MEL-2; [7]): > 100 µM | TGI (SK-MEL-2; read-out: TGI): > 100 µM | GI50 (SK-MEL-2; read-out: pGI50 (converted)): 3.02 µM | CC50 (SK-MEL-2; [8]): > 100 µM | TGI (SK-MEL-2; read-out: pTGI): > 100 µM | GI50 (SK-MEL-5; read-out: GI50): 2.2 µM | CC50 (SK-MEL-5; [7]): 68.2 µM | TGI (SK-MEL-5; read-out: TGI): 8.19 µM | GI50 (SK-MEL-5; read-out: pGI50 (converted)): 2.19 µM | CC50 (SK-MEL-5; [8]): 67.6 µM | TGI (SK-MEL-5; read-out: pTGI (converted)): 8.13 µM | GI50 (OVCAR-5 [4]; read-out: GI50): 5.52 µM | CC50 (OVCAR-5 [4]; [7]): > 100 µM | TGI (OVCAR-5 [4]; read-out: TGI): > 100 µM | GI50 (OVCAR-5 [4]; read-out: pGI50 (converted)): 5.5 µM | CC50 (OVCAR-5 [4]; [8]): > 100 µM | TGI (OVCAR-5 [4]; read-out: pTGI): > 100 µM | GI50 (RXF 393; read-out: GI50): 2.24 µM | CC50 (RXF 393; [7]): > 100 µM | TGI (RXF 393; read-out: TGI): 7.86 µM | GI50 (RXF 393; read-out: pGI50 (converted)): 2.24 µM | CC50 (RXF 393; [8]): > 100 µM | TGI (RXF 393; read-out: pTGI (converted)): 7.94 µM | GI50 (SN12C; read-out: GI50): 5.91 µM | CC50 (SN12C; [7]): > 100 µM | TGI (SN12C; read-out: TGI): > 100 µM | GI50 (SN12C; read-out: pGI50 (converted)): 5.89 µM | CC50 (SN12C; [8]): > 100 µM | TGI (SN12C; read-out: pTGI): > 100 µM | GI50 (UO-31; read-out: GI50): 5.49 µM | CC50 (UO-31; [7]): > 100 µM | TGI (UO-31; read-out: TGI): > 100 µM | GI50 (UO-31; read-out: pGI50 (converted)): 5.5 µM | CC50 (UO-31; [8]): > 100 µM | TGI (UO-31; read-out: pTGI): > 100 µM | GI50 (DU-145; read-out: GI50): 3.48 µM | CC50 (DU-145; [7]): > 100 µM | TGI (DU-145; read-out: TGI): 49.8 µM | GI50 (DU-145; read-out: pGI50 (converted)): 3.47 µM | CC50 (DU-145; [8]): > 100 µM | TGI (DU-145; read-out: pTGI (converted)): 50.1 µM | Activity (MDA-MB-435 [5]): Dose-dependent effect | GI50 (MDA-MB-435 [5]; Homo sapiens, MDA-MB-435, 24 h): 0.37 µM | Activity (HL-60): 4.89% | Activity (MDA-MB-435 [6]): Active | IC50 (Histone deacetylase 3): 0.064 µM
